# Experimental data published in publication PMC9743148 (Annals of oncology : official journal of the European …, 2020).
# System: patients with advanced solid tumors
# Assay: Treatment-emergent adverse events
# Assay type: in vivo, human
# Settings: Combined q.d. cohorts (n = 44)
smiles,measurement,value
C=CC(=O)N1CC[C@H](n2nc(C#Cc3cc(OC)cc(OC)c3)c3c(N)ncnc32)C1 [futibatinib],"ALT increased TEAE, Any grade",11 (25) n (%)
same,"ALT increased TEAE, Grade 1",4 (9) n (%)
same,"ALT increased TEAE, Grade 2",4 (9) n (%)
same,"ALT increased TEAE, Grade 3",3 (7) n (%)
same,"ALT increased TEAE, Grade 4",0 (0) n (%)
same,"AST increased TEAE, Any grade",11 (25) n (%)
same,"AST increased TEAE, Grade 1",4 (9) n (%)
same,"AST increased TEAE, Grade 2",5 (11) n (%)
same,"AST increased TEAE, Grade 3",2 (5) n (%)
same,"AST increased TEAE, Grade 4",0 (0) n (%)
same,"Abdominal pain TEAE, Any grade",6 (14) n (%)
same,"Abdominal pain TEAE, Grade 1",1 (2) n (%)
same,"Abdominal pain TEAE, Grade 2",4 (9) n (%)
same,"Abdominal pain TEAE, Grade 3",1 (2) n (%)
same,"Abdominal pain TEAE, Grade 4",0 (0) n (%)
same,"Alopecia TEAE, Any grade",6 (14) n (%)
same,"Alopecia TEAE, Grade 1",6 (14) n (%)
same,"Alopecia TEAE, Grade 2",0 (0) n (%)
same,"Alopecia TEAE, Grade 3",0 (0) n (%)
same,"Alopecia TEAE, Grade 4",0 (0) n (%)
same,"Anemia TEAE, Any grade",9 (20) n (%)
same,"Anemia TEAE, Grade 1",1 (2) n (%)
same,"Anemia TEAE, Grade 2",6 (14) n (%)
same,"Anemia TEAE, Grade 3",2 (5) n (%)
same,"Anemia TEAE, Grade 4",0 (0) n (%)
same,"Any TEAE, Any grade",44 (100) n (%)
same,"Any TEAE, Grade 1",5 (11) n (%)
same,"Any TEAE, Grade 2",11 (25) n (%)
same,"Any TEAE, Grade 3",21 (48) n (%)
same,"Any TEAE, Grade 4",3 (7) n (%)
same,"Any treatment-related AE, Any grade",41 (93) n (%)
same,"Any treatment-related AE, Grade 1",13 (30) n (%)
same,"Any treatment-related AE, Grade 2",11 (25) n (%)
same,"Any treatment-related AE, Grade 3",16 (36) n (%)
same,"Any treatment-related AE, Grade 4",1 (2) n (%)
same,"Asthenia TEAE, Any grade",9 (20) n (%)
same,"Asthenia TEAE, Grade 1",3 (7) n (%)
same,"Asthenia TEAE, Grade 2",6 (14) n (%)
same,"Asthenia TEAE, Grade 3",0 (0) n (%)
same,"Asthenia TEAE, Grade 4",0 (0) n (%)
same,"Back pain TEAE, Any grade",5 (11) n (%)
same,"Back pain TEAE, Grade 1",3 (7) n (%)
same,"Back pain TEAE, Grade 2",2 (5) n (%)
same,"Back pain TEAE, Grade 3",0 (0) n (%)
same,"Back pain TEAE, Grade 4",0 (0) n (%)
same,"Constipation TEAE, Any grade",18 (41) n (%)
same,"Constipation TEAE, Grade 1",13 (30) n (%)
same,"Constipation TEAE, Grade 2",4 (9) n (%)
same,"Constipation TEAE, Grade 3",1 (2) n (%)
same,"Constipation TEAE, Grade 4",0 (0) n (%)
same,"Cough TEAE, Any grade",5 (11) n (%)
same,"Cough TEAE, Grade 1",5 (11) n (%)
same,"Cough TEAE, Grade 2",0 (0) n (%)
same,"Cough TEAE, Grade 3",0 (0) n (%)
same,"Cough TEAE, Grade 4",0 (0) n (%)
same,"Decreased appetite TEAE, Any grade",7 (16) n (%)
same,"Decreased appetite TEAE, Grade 1",5 (11) n (%)
same,"Decreased appetite TEAE, Grade 2",2 (5) n (%)
same,"Decreased appetite TEAE, Grade 3",0 (0) n (%)
same,"Decreased appetite TEAE, Grade 4",0 (0) n (%)
same,"Diarrhea TEAE, Any grade",15 (34) n (%)
same,"Diarrhea TEAE, Grade 1",9 (20) n (%)
same,"Diarrhea TEAE, Grade 2",5 (11) n (%)
same,"Diarrhea TEAE, Grade 3",1 (2) n (%)
same,"Diarrhea TEAE, Grade 4",0 (0) n (%)
same,"Dose reduction because of TEAE, Any grade",8 (18) n (%)
same,"Dose reduction because of TEAE, Grade 1",0 (0) n (%)
same,"Dose reduction because of TEAE, Grade 2",1 (2) n (%)
same,"Dose reduction because of TEAE, Grade 3",6 (14) n (%)
same,"Dose reduction because of TEAE, Grade 4",1 (2) n (%)
same,"Dosing delay/interruption because of TEAE, Any grade",26 (59) n (%)
same,"Dosing delay/interruption because of TEAE, Grade 1",1 (2) n (%)
same,"Dosing delay/interruption because of TEAE, Grade 2",9 (20) n (%)
same,"Dosing delay/interruption because of TEAE, Grade 3",16 (36) n (%)
same,"Dosing delay/interruption because of TEAE, Grade 4",0 (0) n (%)
same,"Dry eye TEAE, Any grade",5 (11) n (%)
same,"Dry eye TEAE, Grade 1",4 (9) n (%)
same,"Dry eye TEAE, Grade 2",1 (2) n (%)
same,"Dry eye TEAE, Grade 3",0 (0) n (%)
same,"Dry eye TEAE, Grade 4",0 (0) n (%)
same,"Dry mouth TEAE, Any grade",11 (25) n (%)
same,"Dry mouth TEAE, Grade 1",10 (23) n (%)
same,"Dry mouth TEAE, Grade 2",1 (2) n (%)
